From patent US20110251379A1, “COMPOUNDS USEFUL FOR TREATING NEURODEGENERATIVE DISORDERS” (Satori Pharmaceuticals, Inc., priority 2010, published 2011)
Like-named read-outs stand apart in the source and are kept apart here.

System: amyloid-beta (1-42) peptide
Experiment: ELISA assay of amyloid-beta (1-42) in conditioned media of 2B7 cells
Type: cell-based
Settings: for IC50: Aβ-42, 2B7 cells, 5 hours, read-out: IC50 range; for inhibition at 10 µM: Aβ-42, 10 umol/L; for inhibition at 10 µM / inhibition at 100 µM / inhibition at 20 µM: read-out: % Inhibition (range); for inhibition at 100 µM: Aβ-42, 100 umol/L
Procedure, shortened: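 2B7 cells were treated with compounds for 5 hours at 37° C in media with 1% DMSO. Conditioned media, diluted 1:2 in blocking buffer, went into a sandwich ELISA with 6E10 capture and an HRP-labelled detection antibody, read by TMB at 450 nm. Values came from an Aβ peptide standard curve.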

Compound	IC50	IC50 (5 h)	also measured
CC(=O)N(CC1CC(C)C2C(O1)C(O)C1(C)C3CCC4C(C)(C)C(O)CCC45CC35CCC21C)C(C)C (centres unmarked) [drawing 845]	1000 to 10000 nM	–	–
CC(=O)N(CC1CC(C)C2C(O1)C(O)C1(C)C3CCC4C(C)(C)C(O)CCC45CC35CCC21C)C(C)c1ccccc1 (centres unmarked) [drawing 851]	1000 to 10000 nM	–	–
CC1CC(C(OC(=O)C2CC2)C(C)(C)O)OC2C1C1(C)CCC34CC35CCC(O)C(C)(C)C5CCC4C1(C)C2O (centres unmarked) [drawing 853]	≤ 1000 nM	–	–
CC(=O)N(Cc1cc(F)cc(F)c1)CC1CC(C)C2C(O1)C(O)C1(C)C3CCC4C(C)(C)C(OC(=O)C5CNC5)CCC45CC35CCC21C (centres unmarked) [drawing 856]	1000 to 10000 nM	–	–
CC1CC(C(OC(=O)C2CCC2)C(C)(C)O)OC2C1C1(C)CCC34CC35CCC(O)C(C)(C)C5CCC4C1(C)C2O (centres unmarked) [drawing 859]	≤ 1000 nM	–	–
CC1CC(C(OC(=O)N(C)C)C(C)(C)O)OC2C1C1(C)CCC34CC35CCC(O)C(C)(C)C5CCC4C1(C)C2O (centres unmarked) [drawing 862]	> 10000 nM	–	–
CC1CC(C(=O)C(C)(C)O)OC2C1C1(C)CCC34CC35CCC(O)C(C)(C)C5CCC4C1(C)C2O (centres unmarked) [drawing 864]	> 10000 nM	–	–
CC1CC(C(OC(=O)C2CCC2)C(C)(C)O)OC2C1C1(C)CCC34CC35CCC(OC3CN(C6COC6)CCO3)C(C)(C)C5CCC4C1(C)C2O (centres unmarked) [drawing 865]	> 10000 nM	–	–
CC(C)C(=O)OC(C1CC(C)C2C(O1)C(O)C1(C)C3CCC4C(C)(C)C(OC5CN(C6COC6)CCO5)CCC45CC35CCC21C)C(C)(C)O (centres unmarked) [drawing 866]	> 10000 nM	–	–
C[C@@H]1C[C@H]([C@H](O)C(C)(C)O)OC2C1[C@@]1(C)CC[C@@]34C[C@@]35CC[C@H](O)C(C)(C)[C@@H]5CC[C@H]4[C@]1(C)[C@H]2O (some centres unmarked) [drawing 887]	1000 to 10000 nM	–	inhibition at 10 µM: < 25%
C[C@@H]1C[C@H]([C@H](O)C(C)(C)O)OC2C1[C@@]1(C)CC[C@@]34C[C@@]35CC[C@H](O)C(C)(C)[C@@H]5CC[C@H]4[C@]1(C)[C@H]2O (some centres unmarked) [drawing 888]	–	–	inhibition at 100 µM: 25 to 75%
C[C@@H]1C[C@H]([C@H](O)C(C)(C)O)OC2C1[C@@]1(C)CC[C@@]34C[C@@]35CC[C@H](O)C(C)(C)[C@@H]5CC[C@H]4[C@]1(C)[C@H]2O (some centres unmarked) [drawing 889]	> 10000 nM	–	inhibition at 20 µM (Aβ-42, 20 umol/L): < 25%
C[C@@H]1C[C@H]([C@H](O)C(C)(C)O)OC2C1[C@@]1(C)CC[C@@]34C[C@@]35CC[C@H](O)C(C)(C)[C@@H]5CC[C@H]4[C@]1(C)[C@H]2O (some centres unmarked) [drawing 890]	–	–	% Inhibition (range) (Aβ-42, 20 umol/L): E (% inhibition of 25-75%)
CC(=O)O[C@@H]([C@H]1C[C@@H](C)C2C(O1)[C@H](O)[C@@]1(C)[C@@H]3CC[C@H]4C(C)(C)[C@@H](O[C@@H]5OC[C@@H](O)[C@H](O)[C@H]5O)CC[C@@]45C[C@@]35CC[C@]21C)C(C)(C)O (some centres unmarked) [drawing 891]	–	≤ 1000 nM	–
C[C@@H]1C[C@H]([C@H](O)C(C)(C)O)OC2C(=O)[C@@]3(C)[C@@H]4CC[C@H]5C(C)(C)[C@@H](O)CC[C@@]56C[C@@]46CC[C@]3(C)C21 (some centres unmarked) [drawing 893]	–	–	inhibition at 10 µM: < 25%
C[C@@H]1C[C@H]([C@H](O)C(C)(C)O)OC2C(=O)[C@@]3(C)[C@@H]4CC[C@H]5C(C)(C)[C@@H](O)CC[C@@]56C[C@@]46CC[C@]3(C)C21 (some centres unmarked) [drawing 894]	–	–	inhibition at 100 µM: 25 to 75%
CC(=O)O[C@@H]([C@H]1C[C@@H](C)C2C(O1)C(=O)[C@@]1(C)[C@@H]3CC[C@H]4C(C)(C)[C@@H](O[C@@H]5OC[C@@H](O)[C@H](O)[C@H]5O)CC[C@@]45C[C@@]35CC[C@]21C)C(C)(C)O (some centres unmarked) [drawing 895]	–	> 1000 nM	–
CC(=O)O[C@@H]([C@H]1C[C@@H](C)C2C(O1)[C@H](O)[C@@]1(C)[C@@H]3CC[C@H]4C(C)(C)[C@@H](O)CC[C@@]45C[C@@]35CC[C@]21C)C(C)(C)O (some centres unmarked) [drawing 897]	–	≤ 1000 nM	–
CCC(=O)O[C@@H]([C@H]1C[C@@H](C)C2C(O1)[C@H](O)[C@@]1(C)[C@@H]3CC[C@H]4C(C)(C)[C@@H](O)CC[C@@]45C[C@@]35CC[C@]21C)C(C)(C)O (some centres unmarked) [drawing 908]	–	> 10000 nM	inhibition at 100 µM: 25 to 75%
CC(=O)OCC1C[C@@H](C)C2C(O1)[C@H](O)[C@@]1(C)[C@@H]3CC[C@H]4C(C)(C)[C@@H](O)CC[C@@]45C[C@@]35CC[C@]21C (some centres unmarked) [drawing 923]	–	–	inhibition at 20 µM (Aβ-42, 20 umol/L): < 25%
CC(=O)O[C@@H]([C@H]1C[C@@H](C)C2C(O1)[C@H](O)[C@@]1(C)[C@@H]3CC[C@H]4C(C)(C)[C@H](O)CC[C@@]45C[C@@]35CC[C@]21C)C(C)(C)O (some centres unmarked) [drawing 925]	–	≤ 1000 nM	–
CO[C@@H]1[C@@H](OC)[C@H](O[C@H]2CC[C@]34C[C@]35CC[C@]3(C)C6C(O[C@@H]([C@H](OC(C)=O)C(C)(C)O)C[C@H]6C)[C@H](O)[C@@]3(C)[C@@H]5CC[C@H]4C2(C)C)OC[C@H]1OC (some centres unmarked) [drawing 937]	< 10000 nM	–	–
CO[C@@H]1[C@@H](OC)[C@H](O[C@H]2CC[C@]34C[C@]35CC[C@]3(C)C6C(O[C@@H]([C@H](OC(C)=O)C(C)(C)O)C[C@H]6C)[C@H](O)[C@@]3(C)[C@@H]5CC[C@H]4C2(C)C)OC[C@H]1OC (some centres unmarked) [drawing 938]	≤ 1000 nM	–	–
CC(=O)O[C@@H]([C@H]1C[C@@H](C)C2C(O1)[C@H](O)[C@@]1(C)[C@@H]3CC[C@H]4C(C)(C)[C@@H](OC5CN(CC(N)=O)CCO5)CC[C@@]45C[C@@]35CC[C@]21C)C(C)(C)O (some centres unmarked) [drawing 942]	–	≤ 1000 nM	–
CC(=O)O[C@@H]([C@H]1C[C@@H](C)C2C(O1)[C@H](O)[C@@]1(C)[C@@H]3CC[C@H]4C(C)(C)[C@H](O)CC[C@@]45C[C@@]35CC[C@]21C)C(C)(C)O (some centres unmarked) [drawing 944]	1000 to 10000 nM	–	–
CC(=O)O[C@@H]([C@H]1C[C@@H](C)C2C(O1)[C@H](O)[C@@]1(C)[C@@H]3CC[C@H]4C(C)(C)[C@@H](OC5CN(CC(=O)N(C)C)CCO5)CC[C@@]45C[C@@]35CC[C@]21C)C(C)(C)O (some centres unmarked) [drawing 947]	–	≤ 1000 nM	–
CC(=O)O[C@@H]([C@H]1C[C@@H](C)C2C(O1)[C@H](O)[C@@]1(C)[C@@H]3CC[C@H]4C(C)(C)[C@@H](OC(=O)c5cccnc5)CC[C@@]45C[C@@]35CC[C@]21C)C(C)(C)O (some centres unmarked) [drawing 951]	–	≤ 1000 nM	–
CC(=O)O[C@@H]([C@H]1C[C@@H](C)[C@H]2[C@H](O1)[C@H](O)[C@@]1(C)[C@@H]3CC[C@H]4C(C)(C)C(OC(N)=O)CC[C@@]45C[C@@]35CC[C@]21C)C(C)(C)O (some centres unmarked) [drawing 964]	–	≤ 1000 nM	–
CC(=O)O[C@@H]([C@H]1C[C@@H](C)[C@H]2[C@H](O1)C(=O)[C@@]1(C)[C@@H]3CC[C@H]4C(C)(C)[C@@H](O[C@H]5CN(CC(N)=O)CCO5)CC[C@@]45C[C@@]35CC[C@]21C)C(C)(C)O [drawing 969]	–	≤ 1000 nM	–
